Key:
Format in all cases: in vivo
Aedes aegypti = assay: Arm-in-cage repellent/deterrent bioassay on exposed human forearm (modified WHO protocol), Aedes aegypti
Procedure: (§1) Candidate repellents and deterrents were bioassayed according to a modified protocol from the World Health Organization (1996). At least 1 hour prior to each bioassay, 75 host-seeking non blood-fed, nulliparous, 5- to 8-day-old female Aedes aegypti, Anopheles gambiae or Culex quinquefasciatus were placed into a wood-framed cage (26.5 cm on each side and 42.5 cm high) with a wooden floor, screened mesh sides and top, and a clear acrylic front fitted with a cotton stockinette sleeve (10 cm diameter). The test subject's arm was covered with an elbow-length polyethylene glove with an excised patch (16.6 cm long, 6 cm wide) to expose the ventral forearm of the test subject. Candidate deterrents were formulated in mineral (paraffin) oil and applied to the exposed forearm 5 min prior to inserting the arm into the cage. The inserted arm remained in the cage for 3 min every 30 min. Prior to each 3-min bioassay period, the hand of the untreated arm was inserted into the cage to ascertain that it received 10 bites within 30 sec as an indication of “biting pressure”.
(§2) The bioassay was terminated when the treated arm received ≧2 bites in one 3-min bioassay period or one bite in each of two consecutive bioassay periods. The time elapsed from experiment initiation to first bite was recorded as deterrent failure or complete protection time.
(§3) N,N-diethyl-m-toluamide formulated in ethanol at a corresponding dose served as a positive control, and mineral oil by itself served as a negative control. On each day, only one candidate compound was tested, ensuring that any residual material in the chamber had disappeared before the next bioassay.
To determine the repellence and deterrence of 8-allylsulfanyloctan-1-ol against Aedes aegypti, a 5%, 10% or 25% formulation of 8-allylsulfanyloctan-1-ol in mineral oil was applied in Experiments 1-3 at a dose of 1.5 mg (total composition) per cm^2 to the skin of the test person, and was bioassayed according to the protocol described under EXAMPLE 2. In Experiment 4, mineral oil by itself served as a negative control and was bioassayed at the same dose (1.5 mg per cm^2) as in Experiments 1-3. Each of Experiments 1-4 was replicated four times.
To compare the repellence and deterrence against Aedes aegypti caused by 8-allylsulfanyloctan-1-ol as a single active ingredient and by 8-allylsulfanyloctan-1-ol in combination with vanillin as a second active ingredient, we tested a 6.7% emulsion of vanillin (Experiment 14), a 6.7% emulsion of 8-allylsulfanyloctan-1-ol (Experiment 15), and a 13.4% emulsion of 8-allylsulfanyloctan-1-ol plus vanillin (1:1 ratio) (Experiment 16). 8-Allylsulfanyloctan-1-ol and vanillin were formulated in Emulsion No. 1 (see EXAMPLE 9). In each of Experiments […], test stimuli were applied at a dose of 1.5 mg per cm^2 to the skin of the test person, and were bioassayed according to the protocol described under EXAMPLE 2. In Experiment 17, Emulsion No. 1 served as a positive control and was tested at the same dose (1.5 mg per cm^2) as in Experiments 14-16.
To be able to compare the repellence and deterrence caused by N,N-diethyl-m-toluamide and by 8-allylsulfanyloctan-1-ol plus vanillin in Emulsion No. 1 (EXAMPLE 9), Experiment 26 tested a 6.7% formulation of N,N-diethyl-m-toluamide in ethanol (the best formulant for DEET) for protection from bites by Aedes egypti. In each replicate, a dose of 1.5 mg per […] was applied to the skin of the test person and bioassayed according to the protocol described under EXAMPLE 2.
To be able to further compare the deterrence caused by N,N-diethyl-m-toluamide with that caused by 8-allylsulfanyloctan-1-ol plus vanillin, Experiment 27 tested a 10.4% formulation of N,N-diethyl-m-toluamide in ethanol, and Experiment 28 tested 8-allylsulfanyloctan-1-ol (10.4%) plus vanillin (7.9%) in Emulsion No. 2 (EXAMPLE 10). […]

Culex quinquefasciatus = assay: Arm-in-cage repellent/deterrent bioassay on exposed human forearm (modified WHO protocol), Culex quinquefasciatus
Procedure: as §1, §2, §3
To determine the repellence and deterrence of 8-allylsulfanyloctan-1-ol against Culex quinquefasciatus, a 2% and 5% or a 10% formulation of 8-allylsulfanyloctan-1-ol in mineral oil was applied in Experiments 9-11 at a dose of 1.5 mg per cm^2 to the skin of the test person, and was bioassayed according to the protocol described under EXAMPLE 2. In Experiment 12, mineral oil by itself served as a negative control and was tested at the same dose (1.5 mg per cm^2) as in Experiments […]. Each of Experiments 9-11 was replicated 4 times.
To compare the repellence and deterrence against Culex quinquefasciatus caused by 8-allylsulfanyloctan-1-ol as a single active ingredient and by 8-allylsulfanyloctan-1-ol in combination with vanillin as a second active ingredient, we tested a 6.7% emulsion of vanillin (Experiment 22), a 6.7% emulsion of 8-allylsulfanyloctan-1-ol (Experiment 23) and a 13.4% emulsion of 8-allylsulfanyloctan-1-ol plus vanillin (1:1 ratio) (Experiment 24). 8-Allylsulfanyloctan-1-ol and vanillin were formulated in Emulsion No. 1 (see EXAMPLE 9). In each of Experiments […], test stimuli were applied at a dose of 1.5 mg per cm^2 to the skin of the test person, and were bioassayed according to the protocol described under EXAMPLE 2. In Experiment 25, Emulsion No. 1 served as a positive control and was tested at the same dose (1.5 mg per cm^2) as in Experiments 22-24. Each of Experiments 22-25 was replicated three times.

mosquitoes = assay: General bioassay procedure with garlic oil, its components and fractions (mosquito species not given)
Procedure: as §1, §2, §3
Garlic oil (Allium sativum—Mexico; Clearwater Soap Works, Box 1775 RR1, Clearwater, BC V0E 1N0, Canada) was formulated in mineral oil and tested using the general bioassay procedure described in EXAMPLE 2 at a dose of 0.1 mg per cm^2 of arm surface. It expressed repellence and deterrence for ˜30 min.
Some of the 10 components in FIG. 1 were bioassayed singly (see general bioassay procedure) and in various combinations, all of which were as deterrent to mosquitoes as garlic oil.
To determine the most deterrent component(s) in garlic oil, it was fractionated by HPLC into four fractions, each containing one or more of the EAD-active components (compounds 1-10 in FIG. 1 and 11-14 in TABLE 2). Each fraction was then bioassayed and shown to be similarly effective in repelling and deterring mosquitoes.
Components with high molecular weight (>250 daltons) are advantageous in that they: 1) dissipate slowly from treated surfaces; 2) provide long-lasting protection against mosquitoes and 3) convey little, if any, offensive smell. The relative abundance of such components was enhanced by treating garlic oil under vacuum, thus stripping away lower-boiling components. In GC-EAD analyses of the high-boiling residue, four components elicited responses from mosquito antennae.

## C=CCSCCCCCCCCO [Compound 24, 8-allylsulfanyloctan-1-ol]
Aedes aegypti; 5% formulation in mineral oil, 1.5 mg per cm^2, Experiment 1
  protection from bites, average duration: 52 min
Aedes aegypti; 6.7% single active in Emulsion No. 1, 1.5 mg per cm^2, Experiments 14, 15
  protection from bites, average duration: 77 min
Aedes aegypti; 10% formulation in mineral oil, 1.5 mg per cm^2, Experiment 2
  protection from bites, average duration: 157 min
Aedes aegypti; 25% formulation in mineral oil, 1.5 mg per cm^2, Experiment 3
  protection from bites, average duration: 305 min
Culex quinquefasciatus; 2% formulation in mineral oil, 1.5 mg per cm^2, Experiment 9
  protection from bites, average duration: 198 min
Culex quinquefasciatus; 5% formulation in mineral oil, 1.5 mg per cm^2, Experiment 10
  protection from bites, average duration: 319 min
Culex quinquefasciatus; 6.7% single active in Emulsion No. 1 (FIG. 9 legend: 2.0%), 1.5 mg per cm^2, Experiments 22, 23
  protection from bites, average duration: 242 min
Culex quinquefasciatus; 10% formulation in mineral oil, 1.5 mg per cm^2, Experiment 11
  protection from bites, average duration: 495 min
Culex quinquefasciatus; 10% formulation in mineral oil, Experiment 11, each of the three replicates
  protection status when experiment was terminated after eight hours: complete protection against bites
mosquitoes
  repellent and deterrent effect in bioassays (in words): very potent, even at a low dose

Source: patent US8889731B2, “Compounds, compositions and methods for repelling blood-feeding arthropods and deterring their landing and feeding” (Contech Enterprises Inc., priority 2007, dated 2014)
